Holding throughout (format): cell-based
For one experiment, the system named is HepG2. The experiment is described as follows: MTT cell viability assay, HepG2. The conditions noted are these: read-out: IC50(μM) HepG2. For orientation: Tetrazolium assays rely on reduction of a dye to a coloured formazan, in cell work by metabolically active cells.
For a further experiment, the system named is MCF-7. The experiment is described as follows: MTT cell viability assay, MCF-7.
Another experiment relates to A549. The experiment is described as follows: MTT cell viability assay, A549. The conditions noted are these: read-out: IC50(μM) A549.
A further experiment deals with Hela. The experiment is described as follows: MTT cell viability assay, Hela. The conditions noted are these: 48 h.
Setting [1] is: Homo sapiens, MCF7, 48 h, read-out: IC50(μM) MCF-7, MTT, 48 h, MCF-7.
Where [2] appears, read: Homo sapiens, HeLa, read-out: IC50(μM) Hela, MTT, 48 h, Hela.

Read-outs that look alike come from different tables or passages of the source. Bounds are passed on as bounds.

Regarding “(E)-3-(3-hydroxy-4-methoxyphenyl)-1-(2,4,6-trimethoxyphenyl)prop-2-en-1-one [A5]”, the half-inhibitory concentration (IC50) (as a rule, the midpoint of a concentration-inhibition curve) in the experiment with HepG2 (MTT, 48 h, HepG2) is 40.7 ± 1.29 µM; with MCF-7 (read-out: IC50(μM) MCF-7, MTT, 48 h, MCF-7), 24.7 ± 0.94 µM; in the experiment on A549 (MTT, 48 h, A549), 70.9 ± 1.82 µM; in the experiment with Hela (read-out: IC50(μM) Hela, MTT, Hela) it was 38.8 ± 1.21 µM.
For `COc1cc(OC)c(C(=O)/C=C/c2coc(Br)c2)c(OC)c1` [B8, (E)-3-(5-bromofuran-3-yl)-1-(2,4,6-trimethoxyphenyl)prop-2-en-1-one], the IC50 was 20.4 ± 1.52 µM with HepG2 (Homo sapiens, HepG2, 48 h); 48.8 ± 1.45 µM in the experiment with MCF-7 (setting [1]); greater than 100 µM in the experiment with A549 (Homo sapiens, A549, 48 h); 49.8 ± 1.43 µM with Hela (setting [2]).
As to `COc1cc(OC)c(C(=O)/C=C/c2ccc(-c3ccc(F)cc3)cc2)c(OC)c1` [B13, (E)-3-(4′-fluoro-[1,1′-biphenyl]-4-yl)-1-(2,4,6-trimethoxyphenyl)prop-2-en-1-one], the concentration for half-maximal inhibition (IC50) with HepG2 (Homo sapiens, HepG2, 48 h) was determined as 25.6 ± 0.77 µM; with MCF-7 (setting [1]), 35.3 ± 1.14 µM; with A549 (Homo sapiens, A549, 48 h) it was 40.6 ± 1.51 µM; in the experiment with Hela (setting [2]) it was 30.5 ± 0.89 µM.
On the same counts, the results for `COc1cc(OC)c(C(=O)/C=C/c2cc3cc(C)ccc3[nH]c2=O)c(OC)c1` [B15, (E)-6-methyl-3-(3-oxo-3-(2,4,6-trimethoxyphenyl)prop-1-en-1-yl)quinolin-2(1H)-one] are 18 ± 0.62 µM, 16 ± 0.56 µM, 20.4 ± 0.67 µM and 4.91 ± 0.3 µM.
On the same counts, the results for `COc1cc(OC)c(C(=O)/C=C/c2ccc(OCc3ccsc3)cc2)c(OC)c1` [C7, (E)-3-(4-(thiophen-3-ylmethoxy)phenyl)-1-(2,4,6-trimethoxyphenyl)prop-2-en-1-one] are 51.1 ± 2.1 µM, 87.8 ± 2.7 µM, greater than 100 µM and 35 ± 1.17 µM.
For `COc1cc(OC)c(C(=O)/C=C/c2ccc(-c3ccccc3)cc2)c(OC)c1` [B12, (E)-3-([1,1′-biphenyl]-4-yl)-1-(2,4,6-trimethoxyphenyl)prop-2-en-1-one] the same measures were 38.1 ± 1.45 µM, 51.6 ± 1.23 µM, 44.5 ± 1.05 µM and 46.3 ± 1.07 µM.
With `COc1cc(OC)c(C(=O)/C=C/c2cnc3ccccc3c2)c(OC)c1` [B10, (E)-3-(quinolin-3-yl)-1-(2,4,6-trimethoxyphenyl)prop-2-en-1-one], the IC50 with HepG2 (Homo sapiens, HepG2, 48 h) worked out at 8.92 ± 0.68 µM; with MCF-7 (setting [1]) it was 10.7 ± 0.62 µM; in the experiment on A549 (Homo sapiens, A549, 48 h), 15.5 ± 0.74 µM; with Hela (setting [2]) it was 13.6 ± 0.83 µM.
Take `COc1cc(OC)c(C(=O)/C=C/c2ccoc2)c(OC)c1` [B7, (E)-3-(furan-3-yl)-1-(2,4,6-trimethoxyphenyl)prop-2-en-1-one]: the half-inhibitory concentration (IC50) amounted to 61.4 ± 1.34 µM in the experiment on HepG2 (Homo sapiens, HepG2, 48 h); 82.9 ± 2.65 µM in the experiment on MCF-7 (setting [1]); 47.4 ± 2.12 µM in the experiment on A549 (Homo sapiens, A549, 48 h); 81.3 ± 2.44 µM in the experiment on Hela (setting [2]).
Regarding `COc1cc(OC)c(C(=O)/C=C/c2ccc(OCc3cnc4ccccc4c3)cc2)c(OC)c1` [C9, (E)-3-(4-(quinolin-3-ylmethoxy)phenyl)-1-(2,4,6-trimethoxyphenyl)prop-2-en-1-one], the concentration for half-maximal inhibition (IC50) is greater than 100 µM with HepG2 (Homo sapiens, HepG2, 48 h); greater than 100 µM in the experiment on MCF-7 (setting [1]); greater than 100 µM with A549 (Homo sapiens, A549, 48 h); greater than 100 µM in the experiment on Hela (setting [2]).
On to `COc1cc(OC)c(C(=O)/C=C/c2ccc(OCc3ccc4ccccc4c3)cc2)c(OC)c1` [C8, (E)-3-(4-(naphthalen-2-ylmethoxy)phenyl)-1-(2,4,6-trimethoxyphenyl)prop-2-en-1-one], for which the 50% inhibitory concentration (IC50) with HepG2 (Homo sapiens, HepG2, 48 h) was greater than 100 µM; in the experiment with MCF-7 (setting [1]), greater than 100 µM; in the experiment on A549 (Homo sapiens, A549, 48 h), greater than 100 µM; with Hela (setting [2]) it was greater than 100 µM.
Consider `COc1cc(OC)c(C(=O)/C=C/c2ccc(OCc3ccccc3)cc2)c(OC)c1` [C4, (E)-3-(4-(benzyloxy)phenyl)-1-(2,4,6-trimethoxyphenyl)prop-2-en-1-one], for which the IC50 in the experiment on HepG2 (Homo sapiens, HepG2, 48 h) was greater than 100 µM; with MCF-7 (setting [1]), greater than 100 µM; with A549 (Homo sapiens, A549, 48 h) it was greater than 100 µM; in the experiment on Hela (setting [2]), greater than 100 µM.
For `COc1cc(OC)c(C(=O)/C=C/c2ccc(OCC3CCCCC3)cc2)c(OC)c1` [C3, (E)-3-(4-(cyclohexylmethoxy)phenyl)-1-(2,4,6-trimethoxyphenyl)prop-2-en-1-one], the 50% inhibitory concentration (IC50) with HepG2 (Homo sapiens, HepG2, 48 h) is greater than 100 µM; in the experiment on MCF-7 (setting [1]) it was greater than 100 µM; in the experiment with A549 (Homo sapiens, A549, 48 h), greater than 100 µM; with Hela (setting [2]), greater than 100 µM.
Consider `COc1cc(OC)c(C(=O)/C=C/c2ccc(OCc3cc4ccccc4[nH]c3=O)cc2)c(OC)c1` [C10, (E)-3-((4-(3-oxo-3-(2,4,6-trimethoxyphenyl)prop-1-en-1-yl)phenoxy)methyl)quinolin-2(1H)-one], for which the concentration for half-maximal inhibition (IC50) in the experiment with HepG2 (Homo sapiens, HepG2, 48 h) is greater than 100 µM; with MCF-7 (setting [1]), greater than 100 µM; with A549 (Homo sapiens, A549, 48 h), greater than 100 µM; in the experiment on Hela (setting [2]), greater than 100 µM.
Consider `COc1cc(OC)c(C(=O)/C=C/c2ccc(OCc3ccc(Br)cc3)cc2)c(OC)c1` [C5, (E)-3-(4-((4-bromobenzyl)oxy)phenyl)-1-(2,4,6-trimethoxyphenyl)prop-2-en-1-one], for which the IC50 with HepG2 (Homo sapiens, HepG2, 48 h) is greater than 100 µM; in the experiment on MCF-7 (setting [1]), greater than 100 µM; with A549 (Homo sapiens, A549, 48 h) it was greater than 100 µM; with Hela (setting [2]), greater than 100 µM.
For the compound `COc1cc(OC)c(C(=O)/C=C/c2ccccn2)c(OC)c1` [B1, (E)-3-(pyridin-2-yl)-1-(2,4,6-trimethoxyphenyl)prop-2-en-1-one], the IC50 with HepG2 (Homo sapiens, HepG2, 48 h) amounted to 10.8 ± 0.39 µM; in the experiment with MCF-7 (setting [1]), 8.74 ± 0.63 µM; in the experiment on A549 (Homo sapiens, A549, 48 h) it was 10.6 ± 0.38 µM; in the experiment with Hela (setting [2]), 11.9 ± 0.44 µM.
For the compound `COc1cc(OC)c(C(=O)/C=C/c2ccc(OCC3CC3)cc2)c(OC)c1` [C1, (E)-3-(4-(cyclopropylmethoxy)phenyl)-1-(2,4,6-trimethoxyphenyl)prop-2-en-1-one], the IC50 was 39.3 ± 1.55 µM in the experiment with HepG2 (Homo sapiens, HepG2, 48 h); greater than 100 µM in the experiment with MCF-7 (setting [1]); greater than 100 µM with A549 (Homo sapiens, A549, 48 h); 45.5 ± 1.59 µM with Hela (setting [2]).
On to `O=c1[nH]cc(F)c(=O)[nH]1` [5-Fu, 5-fluorouracil, reference compound], for which the half-maximal inhibitory concentration (IC50) stood at 45.4 ± 1.35 µM in the experiment on HepG2 (Homo sapiens, HepG2, 48 h); 55.2 ± 1.92 µM in the experiment with MCF-7 (setting [1]); 43.5 ± 1.22 µM in the experiment on A549 (Homo sapiens, A549, 48 h); 43.8 ± 1.53 µM with Hela (setting [2]).
On the same counts, the results for `COc1cc(OC)c(C(=O)/C=C/c2ccc(OCc3ccccn3)cc2)c(OC)c1` [C6, (E)-3-(4-(pyridin-2-ylmethoxy)phenyl)-1-(2,4,6-trimethoxyphenyl)prop-2-en-1-one] are greater than 100 µM, greater than 100 µM, 74.2 ± 1.84 µM and greater than 100 µM.
For `COc1cc(OC)c(C(=O)/C=C/c2cc3ccccc3[nH]c2=O)c(OC)c1` [B14, (E)-3-(3-oxo-3-(2,4,6-trimethoxyphenyl)prop-1-en-1-yl)quinolin-2(1H)-one] the same measures were 17.6 ± 0.74 µM, 7.92 ± 0.59 µM, 10.7 ± 0.74 µM and 35 ± 0.83 µM.
On the same counts, the results for `COc1cc(OC)c(C(=O)/C=C/c2cccc(Br)n2)c(OC)c1` [B2, (E)-3-(6-bromopyridin-2-yl)-1-(2,4,6-trimethoxyphenyl)prop-2-en-1-one] are 7.12 ± 0.42 µM, 7.83 ± 0.45 µM, 9.36 ± 0.72 µM and 6.48 ± 0.33 µM.
On to `COc1cc(OC)c(C(=O)/C=C/c2c(OC)cc(OC)c(C)c2OC)c(OC)c1` [A6, (E)-3-(2,4,6-trimethoxy-3-methylphenyl)-1-(2,4,6-trimethoxyphenyl)prop-2-en-1-one], for which the IC50 is greater than 100 µM in the experiment on HepG2 (Homo sapiens, HepG2, 48 h); greater than 100 µM with MCF-7 (setting [1]); 63.3 ± 1.41 µM in the experiment on A549 (Homo sapiens, A549, 48 h); greater than 100 µM in the experiment with Hela (setting [2]).

The values above are taken from paper PMC9845116 (Saudi Pharmaceutical Journal : SPJ, 2022).
